Legend:
[1] = Particle diameter by laser diffraction (Malvern Mastersizer); format: physicochemical
Description: The “particle diameter” refers to the equivalent spherical diameter as determined by laser light scattering method. Particle diameter of lamotrigine was determined by laser diffraction. We determined the diameter of lamotrigine particles using a Malvern™ Mastersizer laser diffraction instrument. Samples of lamotrigine were suspended in hexane containing a surfactant (0.07% dioctyl sulfosuccinate sodium salt). The suspensions were mixed and then sonicated for 15 seconds to thoroughly disperse the lamotrigine particles. The dispersion was then recirculated in the flow cell of the Malvern Mastersizer for two minutes before particle diameter measurements were taken.

[2] = Specific surface area by gas adsorption, multipoint BET (Coulter SA3100); format: physicochemical; conditions: micronized particles; degassing 70° C., 30 minutes; 10 points
Text: Gas adsorption analysis is a preferred method for determining the surface area of a sample of lamotrigine for purposes of this invention since it provides a direct measurement of surface area. It is therefore considered to be more accurate than other methods such as electron microscopy and laser diffraction that rely upon a model to obtain a value for surface area (e.g. equivalent sphere model).
We measured specific particle surface area by gas adsorption using a Coulter™ SA3100 Series adsorption analyzer. The specific surface area of a sample of lamotrigine particles was calculated by the multipoint Brunauer, Emmet and Teller (BET) method. Brunauer, S., P. H. Emmett, E. Teller, J. Am. Chem. Soc., 1938, 60, 309-319. The calculations of the surface area of lamotrigine particles and its precise weight would yield specific surface area (usually expressed as square meters/gram). […] The volume of the manifold was measured with helium gas using a conventional technique. […] The instrument's software calculated the moles of adsorbed N2 (based upon inputted sample mass, manifold volume and sample tube void volume) for ten equilibrium pressures (Ps). […]
The specific surface area of the lamotrigine particles was measured with a Coulter SA 3100, using the multipoint BET technique. […] For the linearity, 10 points were measured, using high sensitivity.

[3] = initial particles before air jet milling

Row | particle diameter, 50% of the particles equal to or less than [1, 3] [μm] | particle diameter, about 80% of the particles equal to or less than [1, 3] [μm] | diameter of all particles in the plurality ([1]; after micronization in air jet mill) | specific surface area [2] | SMILES
1 | ≤ 250 | ≤ 500 | – | – | Nc1nnc(-c2cccc(Cl)c2Cl)c(N)n1 [Lamotrigine, 3,5-diamino-6-(2,3-dichlorophenyl)-1,2,4-triazine]
2 | – | – | less than 100 μm | 3.1-3.3 square meters per gram | Nc1nnc(-c2cccc(Cl)c2Cl)c(N)n1 [lamotrigine micronized particles, 3,5-diamino-6-(2,3-dichlorophenyl)-1,2,4-triazine]

Reference: patent US20050238724A1, “Pharmaceutical composition containing lamotrigine particles of defined morphology” (Teva Pharmaceutical Industries Ltd., priority 2002, published 2005)
